Reference: patent US20240384250A1, “FIBROBLAST GROWTH FACTOR 23 MODULATING COMPOUNDS” (THE UAB RESEARCH FOUNDATION, priority 2021, published 2024)

Experiments:
[1] = test system: FGF21 binding to FGFR isoforms 1c, 2c, 3c, 4; experiment: Pull-down and plate binding of FGF21 to FGFR isoforms with sKL or heparin; set-up: species or system human
Experimental: (§1) To study the interaction between Fc-tagged FGFR isoforms (Fc-FGFR), FGF isoforms, and sKL, immunoprecipitation studies were conducted. Protein A beads (6501, BioVision) and protein G beads (6511, BioVision) were used at 25 μl of a 50% stock slurry per sample in a total bead volume of 50 μl. Beads were washed 5× in activity buffer (50 mM Tris [pH 7.4], 200 mM NaCl, 0.01% Tween 20). Bead spin-down assays were all performed for 2 minutes at 5000 g. Beads were resuspended in 1 ml of activity buffer in a 1.5-ml snap cap tube. One microgram of Fc-FGFR1 to 4 was incubated with the beads for 1 hour on a bead rotator. Control samples were incubated with 2 μg of anti-FGF antibody instead of Fc-FGFR. […] Samples were analyzed using SDS-PAGE and Western blotting.
(§2) Proteins were coated on 96-well plates (MaxiSorp; 439454, Thermo Fisher Scientific), and proteins were added to wells in 100 μl of enzyme-linked immunosorbent assay (ELISA) coating buffer (E107, Bethyl Laboratories) with a lid placed overtop and incubated at 4° C. overnight. […] Reactions were stopped with ELISA stop solution (E115, Bethyl Laboratories) and analyzed using the Synergy HI plate reader (BioTek) at 450 nm wavelength. […] As a control to remove background absorbance values, wells were coated with an equal amount of BSA to match the amount of protein coated in experimental wells and treated the same as experimental wells. […]

FGF7 binding to FGFR1c = biological target: T1, FGF7 binding to FGFR1c (Homo sapiens, UniProt P11362); experiment: Plate-based binding of paracrine FGF to Fc-FGFR1c with heparin and/or sKL; conditions: 0.4 USP heparin
T1 construct: a chimeric protein consisting of the FGFR1 ectodomain and the Fc region of a human IgG; purchased R&D Systems 251-KG/CF; 658FR050
Experimental: Proteins were coated on 96-well plates (MaxiSorp; 439454, Thermo Fisher Scientific), and proteins were added to wells in 100 μl of enzyme-linked immunosorbent assay (ELISA) coating buffer (E107, Bethyl Laboratories) with a lid placed overtop and incubated at 4° C. overnight. Plates were washed 5× with 350 μl of assay buffer (50 mM Tris [pH 7.4], 200 mM NaCl, 0.01% Tween 20) on a 50 TS microplate washer (BioTek). Plates were blocked for 1 hour in 200 μl of assay buffer with 0.5% BSA. Plates were washed as before, and proteins were incubated on plates in 100 μl of assay buffer with 0.5% BSA. Proteins or heparin was incubated in orders described in the respective figure legends. Assays using FLAG-tag-based detection were incubated with anti-FLAG coupled to HRP at 1:20,000, and assays using Fc detection were incubated with anti-human Fc coupled to HRP at 1:10,000. Plates were washed as above, and 100 μl of 3,3′,5,5′-tetramethylbenzidine (TMB) substrate (E102, Bethyl Laboratories) was added for 15 to 20 minutes until positive wells developed a dark blue color. Reactions were stopped with ELISA stop solution (E115, Bethyl Laboratories) and analyzed using the Synergy HI plate reader (BioTek) at 450 nm wavelength. […] As a control to remove background absorbance values, wells were coated with an equal amount of BSA to match the amount of protein coated in experimental wells and treated the same as experimental wells. To study the effects of sKL on the binding between paracrine FGFs and FGFRs, plates were run as above except coated with paracrine FGFs. Fc-FGFR1 was preincubated with sKL or vehicle for 60 minutes, and then the combination was added to wells and the assay was run as before.

[2] = test system: FGF19 binding to FGFR isoforms 1c, 2c, 3c, 4; experiment: Pull-down and plate binding of FGF19 to FGFR isoforms with sKL or heparin; set-up: species or system human
Experimental: as §1, §2

[3] = test system: BALB/c mice on 0.2% adenine diet; conditions: mouse, in vivo
FGF23/FGFR4 binding = biological target: T2, FGF23/FGFR4 binding (Homo sapiens, UniProt P22455+Q9GZV9, R179Q); experiment: Surface plasmon resonance, FGF23 binding to surface FGFR4 with heparin or sKL in solution; conditions: heparin or sKL in solution
T2 construct: Fc-FGFR4 protein (human ectodomain) was immobilized; purchased R&D Systems human FGF23 2604FG025/CF; human FGFR4 685FR050
Experimental: For the direct quantitative analysis of label-free molecular interactions in real time, surface plasmon resonance studies were conducted using BIAcore T200 and T200 evaluation software (28975001, Cytiva). Sensor SA (BR100398) and CMS chips (BR100399) were from Cytiva. For the preparation of heparin chips, heparin (2 mg) and amine-PEG3-Biotin (2 mg, 21347, Pierce) were dissolved in 200 μl of H2O and 10 mg of NaCNBH3 was added. The reaction mixture was heated at 70° C. for 24 hours; an additional 10 mg of NaCNBH3 was added; and the reaction was heated at 70° C. for another 24 hours. After cooling to room temperature, the mixture was desalted with the spin column (3000 MWCO). Biotinylated heparin was collected, freeze dried, and used for chip preparation. Biotinylated heparin was immobilized to streptavidin chips according to the manufacturer's protocol. In brief, 20 μl of biotinylated heparin solution (0.1 mg/ml) in HBS-P running buffer (0.01 M N-2-hydroxyethylpiperazine-N′-2-ethanesulfonic acid, 0.15 M NaCl, 0.005% surfactant P20 [pH7.4]; BR100368, Cytiva) was injected over flow cell 2 of the streptavidin chip at a flow rate of 10 μl/min. The successful immobilization of heparin was confirmed by the observation of an approximately 200-resonance unit increase in the sensor chip. […] The response was monitored as a function of time (sensorgram) at 25° C.

T2 sequence (Q9GZV9 25-251 R179Q): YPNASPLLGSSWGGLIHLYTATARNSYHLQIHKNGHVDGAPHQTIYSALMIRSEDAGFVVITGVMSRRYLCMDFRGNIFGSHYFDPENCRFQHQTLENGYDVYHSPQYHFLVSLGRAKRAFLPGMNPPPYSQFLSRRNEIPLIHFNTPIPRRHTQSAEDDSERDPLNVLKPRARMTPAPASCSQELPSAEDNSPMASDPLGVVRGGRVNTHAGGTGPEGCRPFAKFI
T2 sequence (P22455 22-369 limits assumed): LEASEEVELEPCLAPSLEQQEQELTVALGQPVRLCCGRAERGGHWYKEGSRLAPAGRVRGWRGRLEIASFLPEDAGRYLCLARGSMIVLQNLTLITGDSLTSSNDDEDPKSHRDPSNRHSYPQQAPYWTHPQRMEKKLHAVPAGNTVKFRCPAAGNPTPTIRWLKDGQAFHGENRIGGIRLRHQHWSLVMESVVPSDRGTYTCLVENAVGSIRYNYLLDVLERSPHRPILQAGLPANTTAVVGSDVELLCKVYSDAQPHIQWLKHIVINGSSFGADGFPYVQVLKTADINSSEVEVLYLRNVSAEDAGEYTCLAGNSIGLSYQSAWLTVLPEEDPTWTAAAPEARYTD
T1 sequence (P11362 22-376 limits assumed): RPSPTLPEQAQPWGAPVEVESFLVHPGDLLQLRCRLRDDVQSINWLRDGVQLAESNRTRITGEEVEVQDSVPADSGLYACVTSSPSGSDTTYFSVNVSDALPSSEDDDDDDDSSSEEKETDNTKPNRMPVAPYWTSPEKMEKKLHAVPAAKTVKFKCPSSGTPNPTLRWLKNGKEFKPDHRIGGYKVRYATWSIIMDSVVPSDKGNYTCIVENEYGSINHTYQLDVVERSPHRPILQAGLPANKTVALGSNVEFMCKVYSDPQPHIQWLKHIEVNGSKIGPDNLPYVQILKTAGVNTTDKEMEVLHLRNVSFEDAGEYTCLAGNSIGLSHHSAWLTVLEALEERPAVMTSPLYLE
Sequence of FGF19 binding to FGFR isoforms 1c, 2c, 3c, 4 (O95750 25-216): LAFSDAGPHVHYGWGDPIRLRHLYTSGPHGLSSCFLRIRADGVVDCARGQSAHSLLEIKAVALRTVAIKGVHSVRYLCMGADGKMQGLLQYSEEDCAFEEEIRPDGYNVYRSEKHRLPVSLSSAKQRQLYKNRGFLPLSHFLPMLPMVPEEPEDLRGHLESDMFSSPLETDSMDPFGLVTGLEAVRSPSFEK

binding of FGF21 to any of the FGFR isoforms [1]: does not mediate binding | FGF7 binding to FGFR1c with heparin (FGF7 binding to FGFR1c): did not induce binding | binding of FGF19 to any of the FGFR isoforms [2]: does not mediate binding | effect on the heart [3]: no effect on the heart | increase in FGF23/FGFR4 binding affinity (FGF23/FGFR4 binding): approximately 3 fold
Substance: heparin [reference compound]
ratio of heart weight to body weight [3]: not significantly altered
